Experimental findings from patent US10828315B2 (Madrigal Pharmaceuticals, Inc., priority 2013, dated 2020) are described below.

In one data set the test system is HER2. Description: HER2 degradation assay with BT-474 cell line (Example 12, FACS). Format: cell-based, human.
A short description of data set [1]: Mouse plasma stability protocol, up to 1 h (Examples 16-18).
[2] abbreviates: % Remaining of parent after 1 h incubation in mouse plasma at 37° C. (10 μM).

“And” between values parts separate entries of the source, which are not always exact repeats. Equal values may be shown once.

As for `CCNC(=O)c1nnc(-c2cc(C(C)C)c(O)cc2O)n1-c1ccc(OC2CCN(C(=O)CN(C)C(=O)Oc3ccc4nc5c(c(CC)c4c3)Cn3c-5cc4c(c3=O)COC(=O)[C@]4(O)CC)CC2)cc1` [SDC-TRAP-0206, (S)-4,11-diethyl-4-hydroxy-3,14-dioxo-3,4,12,14-tetrahydro-1H-pyrano[3′,4′:6,7]indolizino[1,2-b]quinolin-9-yl (2-(4-(4-(3-(2,4-dihydroxy-5-isopropylphenyl)-5-(ethylcarbamoyl)-4H-1,2,4-triazol-4-yl)phenoxy)piperidin-1-yl)-2-oxoethyl)(methyl)carbamate], the concentration for half-maximal inhibition (IC50) (as a rule, the concentration at which inhibition is half-maximal) in the data set on HER2 was 321 nM. Moreover, in data set [1] (setting [2]), the “% Remaining (1 h)” value turned out to be 68.6%. Also, the “% Remaining (1 h, 37° C.)” value in data set [1] (mouse plasma, 37° C.) is reported as 68.6%.
Consider `CCNC(=O)c1nnc(-c2cc(C(C)C)c(O)cc2O)n1-c1ccc(C(=O)N2CCN(C(=O)COC(=O)OC3(CC)C(=O)OCc4c3cc3n(c4=O)Cc4c-3nc3ccc(O)cc3c4CC)CC2)cc1` (stereo not shown) [SDC-TRAP-0202, 4,11-diethyl-9-hydroxy-3,14-dioxo-3,4,12,14-tetrahydro-1H-pyrano[3′,4′:6,7]indolizino[1,2-b]quinolin-4-yl (2-(4-(4-(3-(2,4-dihydroxy-5-isopropylphenyl)-5-(ethylcarbamoyl)-4H-1,2,4-triazol-4-yl)benzoyl)piperazin-1-yl)-2-oxoethyl) carbonate], for which the IC50 with HER2 was > 5000 nM. Also, the “% Remaining (1 h)” value in data set [1] (setting [2]) is 21.2%. Also, the “% Remaining (1 h, 37° C.)” value in data set [1] (mouse plasma, 37° C.) is 21.2%.
`CCNC(=O)c1nnc(-c2cc(C(C)C)c(O)cc2O)n1-c1ccc(Oc2ccc(C(=O)N3CCC(N(C)C(=O)Oc4ccc5nc6c(c(CC)c5c4)Cn4c-6cc5c(c4=O)COC(=O)C5(O)CC)CC3)cc2)cc1` (stereo not shown) [SDC-TRAP-0180, 4,11-Diethyl-4-hydroxy-3,14-dioxo-3,4,12,14-tetrahydro-1H-pyrano[3′,4′:6,7]indolizino[1,2-b]quinolin-9-yl (1-(4-(4-(3-(2,4-dihydroxy-5-isopropylphenyl)-5-(ethylcarbamoyl)-4H-1,2,4-triazol-4-yl)phenoxy)benzoyl)piperidin-4-yl)(methyl)carbamate] had an IC50 in the data set with HER2 of 325 nM. Besides, the “% Remaining (1 h)” value was 72.4% in data set [1] (setting [2]) and 72.4% in data set [1] (mouse plasma, 37° C., 10 μM). Besides, the “% Remaining (1 h, 37° C.)” value in data set [1] (mouse plasma, 37° C.) turned out to be 72.4%.
On to `CCNC(=O)c1nnc(-c2cc(C(C)C)c(O)cc2O)n1-c1ccc(OC2CCN(C(=O)C3CCN(C(=O)Oc4ccc5nc6c(c(CC)c5c4)Cn4c-6cc5c(c4=O)COC(=O)[C@]5(O)CC)C(C)C3)CC2)cc1` (stereo partly drawn) [SDC-TRAP-0213, (S)-4,11-diethyl-4-hydroxy-3,14-dioxo-3,4,12,14-tetrahydro-1H-pyrano[3′,4′:6,7]indolizino[1,2-b]quinolin-9-yl 4-(4-(4-(3-(2,4-dihydroxy-5-isopropylphenyl)-5-(ethylcarbamoyl)-4H-1,2,4-triazol-4-yl)phenoxy)piperidine-1-carbonyl)-2-methylpiperidine-1-carboxylate], for which it took 248 nM to reach half-maximal inhibition with HER2 (IC50). In data set [1] (setting [2]), the “% Remaining (1 h)” value is 74.7%. Also, the “% Remaining (1 h, 37° C.)” value in data set [1] (mouse plasma, 37° C.) worked out at 74.7%.
On to `CCc1c2c(nc3ccc(OC(=O)N4CCN(Cc5ccc(-n6c(O)nnc6-c6cc(C(C)C)c(O)cc6O)cc5)CC4C)cc13)-c1cc3c(c(=O)n1C2)COC(=O)C3(O)CC` (stereo not shown) [SDC-TRAP-0220, 4,11-diethyl-4-hydroxy-3,14-dioxo-3,4,12,14-tetrahydro-1H-pyrano[3′,4′:6,7]indolizino[1,2-b]quinolin-9-yl 4-(4-(3-(2,4-dihydroxy-5-isopropylphenyl)-5-hydroxy-4H-1,2,4-triazol-4-yl)benzyl)-2-methylpiperazine-1-carboxylate], for which the 50% inhibitory concentration (IC50) in the data set with HER2 is 474 nM and 445 nM. Further, the “% Remaining (1 h, 37° C.)” value in data set [1] (mouse plasma, 37° C.) is 78.3%.
In the case of `CCNC(=O)c1nnc(-c2cc(C(C)C)c(O)cc2O)n1-c1ccc(CN2CCC(C(=O)N3CCN(C(=O)Oc4ccc5nc6c(c(CC)c5c4)Cn4c-6cc5c(c4=O)COC(=O)C5(O)CC)C(C)C3)CC2)cc1` (stereo not shown) [SDC-TRAP-0185, 4,11-diethyl-4-hydroxy-3,14-dioxo-3,4,12,14-tetrahydro-1H-pyrano[3′,4′:6,7]indolizino[1,2-b]quinolin-9-yl 4-(1-(4-(3-(2,4-dihydroxy-5-isopropylphenyl)-5-(ethylcarbamoyl)-4H-1,2,4-triazol-4-yl)benzyl)piperidine-4-carbonyl)-2-methylpiperazine-1-carboxylate], the IC50 in the data set on HER2 came out at 38 nM. For the same molecule, the “% Remaining (1 h)” value in data set [1] (setting [2]) turned out to be 68.1%; in data set [1] (mouse plasma, 37° C., 10 μM) it was 68.1%. The “% Remaining (1 h, 37° C.)” value in data set [1] (mouse plasma, 37° C.) turned out to be 68.1%.
On to `CCNC(=O)c1nnc(-c2cc(C(C)C)c(O)cc2O)n1-c1ccc(OC2CCN(C(=O)Oc3c(C)cc(COC(=O)Nc4cccc5c4CN(C4CCC(=O)NC4=O)C5=O)cc3C)CC2)cc1` (stereo not shown) [SDC-TRAP-0187, 4-((((2-(2,6-dioxopiperidin-3-yl)-1-oxoisoindolin-4-yl)carbamoyl)oxy)methyl)-2,6-dimethylphenyl 4-(4-(3-(2,4-dihydroxy-5-isopropylphenyl)-5-(ethylcarbamoyl)-4H-1,2,4-triazol-4-yl)phenoxy)piperidine-1-carboxylate], for which, in the data set on HER2, the IC50 came to 72 nM. The “% Remaining (1 h)” value in data set [1] (setting [2]) is given as 102%.
The matching figures for `CCNC(=O)c1nnc(-c2cc(C(C)C)c(O)cc2O)n1-c1ccc(Oc2ccc(OC(=O)N(C)CCOC(=O)Nc3cccc4c3CN(C3CCC(=O)NC3=O)C4=O)cc2)cc1` (stereo not shown): 2860 nM and 51.2%.
Consider `CCc1c2c(nc3ccc(OC(=O)N4CCCCC4C(=O)N4CCC(CCn5ccc6cc(-n7c(O)nnc7-c7cc(C(C)C)c(O)cc7O)ccc65)CC4)cc13)-c1cc3c(c(=O)n1C2)COC(=O)[C@]3(O)CC` (stereo partly drawn) [SDC-TRAP-0215, (S)-4,11-diethyl-4-hydroxy-3,14-dioxo-3,4,12,14-tetrahydro-1H-pyrano[3′,4′:6,7]indolizino[1,2-b]quinolin-9-yl 2-(4-(2-(5-(3-(2,4-dihydroxy-5-isopropylphenyl)-5-hydroxy-4H-1,2,4-triazol-4-yl)-1H-indol-1-yl)ethyl)piperidine-1-carbonyl)piperidine-1-carboxylate], for which half-maximal inhibition in the data set with HER2 (IC50) was put at 2750 nM. In data set [1] (mouse plasma, 37° C.), the “% Remaining (1 h, 37° C.)” value was determined as 77.2%.
Turning to `CCNC(=O)c1nnc(-c2cc(C(C)C)c(O)cc2O)n1-c1ccc(Oc2ccc(C(=O)N3CCC(C(=O)OC4(CC)C(=O)OCc5c4cc4n(c5=O)Cc5cc6c(CN(C)C)c(O)ccc6nc5-4)CC3)cc2)cc1` (stereo not shown) [SDC-TRAP-0159, 10-((dimethylamino)methyl)-4-ethyl-9-hydroxy-3,14-dioxo-3,4,12,14-tetrahydro-1H-pyrano[3′,4′:6,7]indolizino[1,2-b]quinolin-4-yl-1-(4-(4-(3-(2,4-dihydroxy-5-isopropylphenyl)-5-(ethylcarbamoyl)-4H-1,2,4-triazol-4-yl)phenoxy)benzoyl)piperidine-4-carboxylate], in the data set with HER2, the half-inhibitory concentration (IC50) is > 1000 nM. Also, the “% Remaining (1 h)” value in data set [1] (setting [2]) is 121%.
The molecule `CCc1c2c(nc3ccc(OC(=O)N(C)C4CCN(C(=O)CCn5ccc6cc(-n7c(O)nnc7-c7cc(C(C)C)c(O)cc7O)ccc65)CC4)cc13)-c1cc3c(c(=O)n1C2)COC(=O)C3(O)CC` (stereo not shown) [SDC-TRAP-0184, 4,11-diethyl-4-hydroxy-3,14-dioxo-3,4,12,14-tetrahydro-1H-pyrano[3′,4′:6,7]indolizino[1,2-b]quinolin-9-yl (1-(3-(5-(3-(2,4-dihydroxy-5-isopropylphenyl)-5-hydroxy-4H-1,2,4-triazol-4-yl)-1H-indol-1-yl)propanoyl)piperidin-4-yl)(methyl)carbamate] came in with an IC50 in the data set with HER2 of 4000 nM. In addition, the “% Remaining (1 h)” value was found to be 18.0% in data set [1] (setting [2]) and 18.0% in data set [1] (mouse plasma, 37° C., 10 μM). For the same molecule, in data set [1] (mouse plasma, 37° C.), the “% Remaining (1 h, 37° C.)” value came out at 18.0%.
